Eleven compounds from the NIST ThermoML archive (doi:10.1016/j.fluid.2013.10.033) can be followed below.

± gives the expanded uncertainty stated by the source.

The conditions of data set [1]: 298.15 K; 101.33 kPa; Liquid; Vibrating tube method.
Data set [2] can be described thus: refractive index (Na D-line) (dimensionless). To be noted: 298.15 K; 101.33 kPa; Liquid; Standard Abbe refractometry.
The nature of data set [3]: xn = mol fraction of the nth substance listed. To be noted: 298.15 K, 101 kPa, Liquid, Vibrating tube method.

As usually defined, the mass density is mass per unit of volume. For orientation: refractive index means a measure of how strongly the sample bends light. As to `CCOS(=O)(=O)[O-].CC[n+]1ccccc1` [1-ethylpyridinium ethyl sulfate], in data set [1], the mass density turned out to be 1252 ± 0.4 kg/m3. In data set [2], the refractive index is listed as 1.50525 ± 0.0007.
Consider `C1CCCCCCC1` [cyclooctane], for which the mass density in data set [1] is given as 831.47 ± 0.12 kg/m3. For the same compound, the refractive index in data set [2] is 1.45598 ± 0.00068.
Take `CCOS(=O)(=O)[O-].CC[n+]1ccccc1` [1-ethylpyridinium ethyl sulfate] + C1CCCCC1: the mass density in data set [3] (x2 = 0.017) amounted to 1247.74 ± 1.8 kg/m3.
`CCOS(=O)(=O)[O-].CC[n+]1ccccc1` [1-ethylpyridinium ethyl sulfate] + C1=CCCCC1: in data set [3] (x2 = 0.041), the mass density is 1243.4 ± 1.8 kg/m3.
In the case of `C1=CCCCC1` [cyclohexene], in data set [1], the mass density stood at 805.69 ± 0.24 kg/m3. The refractive index in data set [2] turned out to be 1.44378 ± 0.0007.
Regarding `CCOS(=O)(=O)[O-].CC[n+]1ccccc1` [1-ethylpyridinium ethyl sulfate] + C1CCCCCCC1, the mass density in data set [3] (x2 = 0.009) was 1249.15 ± 1.2 kg/m3.
Regarding `c1ccccc1` [benzene], the mass density in data set [1] worked out at 873.57 ± 0.11 kg/m3. Besides, the refractive index in data set [2] is recorded as 1.49774 ± 0.00068.
For `CCOS(=O)(=O)[O-].CC[n+]1ccccc1` [1-ethylpyridinium ethyl sulfate] + CC1CCCCC1, the mass density in data set [3] (x2 = 0.013) stood at 1248.79 ± 1.7 kg/m3.
`CCOS(=O)(=O)[O-].CC[n+]1ccccc1` [1-ethylpyridinium ethyl sulfate] + c1ccccc1: in data set [3] (x2 = 0.406), the mass density worked out at 1171.69 ± 1.6 kg/m3.
`C1CCCCC1` [cyclohexane]: the mass density in data set [1] came out at 773.8 ± 0.13 kg/m3. For the same compound, the refractive index in data set [2] turned out to be 1.4236 ± 0.00068.
Taken in the same sequence, the figures for `CC1CCCCC1` [methylcyclohexane] were 765.02 ± 0.24 kg/m3 and 1.42062 ± 0.0007.
